Data: patent US11162123B2, “Glutamine synthetase reaction and method for quantifying ammonia utilizing the same” (ARKRAY, Inc., priority 2017, dated 2021)
Where two headings read alike, the source gives them in different places.

Legend:
[1] = target: Glutamine synthetase (GST) (Homo sapiens, UniProt P15104); details: known from the art; cited from earlier work
[2] = tested on: glutamine synthetase
Experimental: After mixing the components, a base material was impregnated therewith. After drying the base material, a test liquid (10,000 N-μg/dL aqueous ammonia solution supplemented with 0, 10, 30, 60, or 80 ppm calcium) was added thereto, followed by allowing the reaction to proceed at room temperature for 300 seconds and then measuring the reflectance (ΔR). By calculating the difference (ΔR) between the reflectance R of the sample to which calcium was not added and the reflectance R of each sample to which calcium was added, the effect of calcium in the ammonia measurement system can be investigated.

[3] = tested on: enzymes excluding glutamine synthetase; test: liquid reaction system with ADP, G6P or NADH added as sample (enzymes excluding glutamine synthetase); format: biochemical
Experimental: (§1) Reagent A was mixed with a sample immediately before the reaction, and then reagent B was added to the resulting mixture to perform the reaction. The ammonia concentration was measured based on the increase in the absorbance at 340 nm during the period of 300 seconds after the beginning of the reaction. To the sample, calcium was added at various concentrations (180, 340, 530, or 700 ppm). The liquid volumes of the reagents were as follows: reagent A, 140 μL; reagent B, 35 μL; sample, 10 μL.
Since ADP is a substrate of ADP-dependent hexokinase, the effect of calcium in the sample on the reactions of enzymes excluding glutamine synthetase can be investigated. Similarly, each of G6P and NADH was added as a sample to the reaction system to investigate the reaction using G6P or NADH as a substrate.

[4] = tested on: glutamine synthetase; remark: listed apart in the source
Experimental: as §1
Subsequently, in what step calcium affects the ammonia measurement reaction was investigated. […] Since ADP is a substrate of ADP-dependent hexokinase, the effect of calcium in the sample on the reactions of enzymes excluding glutamine synthetase can be investigated. Similarly, each of G6P and NADH was added as a sample to the reaction system to investigate the reaction using G6P or NADH as a substrate.

Glutamine synthetase (GST), sequence (P15104 whole entry, species assumed): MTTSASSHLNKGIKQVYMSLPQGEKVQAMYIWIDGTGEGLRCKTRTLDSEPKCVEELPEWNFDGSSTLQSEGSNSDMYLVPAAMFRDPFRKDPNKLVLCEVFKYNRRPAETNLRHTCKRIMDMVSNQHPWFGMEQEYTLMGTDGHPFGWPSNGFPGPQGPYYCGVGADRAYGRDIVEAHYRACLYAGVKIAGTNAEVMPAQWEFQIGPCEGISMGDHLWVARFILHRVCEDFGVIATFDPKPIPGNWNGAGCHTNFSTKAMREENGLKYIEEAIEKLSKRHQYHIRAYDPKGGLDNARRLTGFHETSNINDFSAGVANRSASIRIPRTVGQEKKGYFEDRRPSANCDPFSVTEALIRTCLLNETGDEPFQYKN

CS(=N)(=O)CC[C@H](N)C(=O)O (stereo partly drawn) [L-methionine sulfoximine]
inhibition of glutamine synthetase [1]: inhibited

[Ca+2] [calcium]
measured value (reflectance, ΔR) versus calcium concentration ([2]; no EDTA, test liquid with 0, 10, 30, 60 or 80 ppm calcium, room temperature, 300 seconds): changed dependently on the calcium concentration
effect of calcium on measured value, ADP added as sample ([3]; ADP as sample, with and without EDTA): disappearance of the effect of calcium
effect of calcium on measured value, G6P or NADH added as sample ([3]; G6P or NADH as sample): no effect of calcium was found
step of the ammonia measurement reaction affected by calcium ([4]; conclusion from substrate-addition experiments): affects glutamine synthetase in the first step
measured value of ammonia versus calcium concentration ([4]; no addition of EDTA, calcium 180, 340, 530 or 700 ppm in sample, absorbance 340 nm, 300 seconds): decreases dependently on the calcium concentration

CP(=O)(O)CC[C@H](N)C(=O)O [phosphinothricin]
inhibition of glutamine synthetase [1]: inhibited

O=C(O)CN(CCN(CC(=O)O)CC(=O)O)CC(=O)O [EDTA, ethylenediaminetetraacetic acid, reference compound]
change in reflectance (change in ΔR) caused by calcium ([2]; addition of 5, 10 or 20 mM EDTA): improved the change in the reflectance
measured value of ammonia versus calcium concentration ([4]; addition of EDTA (2.00 mM in reagent A), calcium 180-700 ppm in sample): does not change dependently on the calcium concentration
